{"source": "the NIST ThermoML archive (doi:10.1021/je100605v)", "conditions": "Liquid, Closed cell (Static) method"}
{"smiles": "CCO[Si](CC)(OCC)OCC", "note": "[ethyltriethoxysilane]", "values": [{"measurement": "vapor or sublimation pressure", "setting": "335 K", "result": 2.325, "unit": "kPa"}, {"measurement": "vapor or sublimation pressure", "setting": "340.8 K", "result": 3.325, "unit": "kPa"}, {"measurement": "vapor or sublimation pressure", "setting": "346.2 K", "result": 4.325, "unit": "kPa"}, {"measurement": "vapor or sublimation pressure", "setting": "350.4 K", "result": 5.325, "unit": "kPa"}, {"measurement": "vapor or sublimation pressure", "setting": "359.9 K", "result": 8.325, "unit": "kPa"}, {"measurement": "vapor or sublimation pressure", "setting": "367.1 K", "result": 11.32, "unit": "kPa"}, {"measurement": "vapor or sublimation pressure", "setting": "372.9 K", "result": 14.32, "unit": "kPa"}, {"measurement": "vapor or sublimation pressure", "setting": "377.7 K", "result": 17.32, "unit": "kPa"}, {"measurement": "vapor or sublimation pressure", "setting": "382 K", "result": 20.32, "unit": "kPa"}, {"measurement": "vapor or sublimation pressure", "setting": "385.8 K", "result": 23.32, "unit": "kPa"}, {"measurement": "vapor or sublimation pressure", "setting": "389 K", "result": 26.33, "unit": "kPa"}, {"measurement": "vapor or sublimation pressure", "setting": "392 K", "result": 29.32, "unit": "kPa"}, {"measurement": "vapor or sublimation pressure", "setting": "394.8 K", "result": 32.33, "unit": "kPa"}, {"measurement": "vapor or sublimation pressure", "setting": "397.4 K", "result": 35.33, "unit": "kPa"}, {"measurement": "vapor or sublimation pressure", "setting": "399.9 K", "result": 38.32, "unit": "kPa"}, {"measurement": "vapor or sublimation pressure", "setting": "402.2 K", "result": 41.33, "unit": "kPa"}, {"measurement": "vapor or sublimation pressure", "setting": "404.1 K", "result": 44.33, "unit": "kPa"}, {"measurement": "vapor or sublimation pressure", "setting": "405.5 K", "result": 47.32, "unit": "kPa"}, {"measurement": "vapor or sublimation pressure", "setting": "407.6 K", "result": 50.33, "unit": "kPa"}, {"measurement": "vapor or sublimation pressure", "setting": "410.1 K", "result": 53.32, "unit": "kPa"}, {"measurement": "vapor or sublimation pressure", "setting": "411.9 K", "result": 56.33, "unit": "kPa"}, {"measurement": "vapor or sublimation pressure", "setting": "413.7 K", "result": 59.33, "unit": "kPa"}, {"measurement": "vapor or sublimation pressure", "setting": "415.4 K", "result": 62.32, "unit": "kPa"}, {"measurement": "vapor or sublimation pressure", "setting": "416.8 K", "result": 65.32, "unit": "kPa"}, {"measurement": "vapor or sublimation pressure", "setting": "418.3 K", "result": 68.33, "unit": "kPa"}, {"measurement": "vapor or sublimation pressure", "setting": "419.4 K", "result": 71.33, "unit": "kPa"}, {"measurement": "vapor or sublimation pressure", "setting": "420.6 K", "result": 74.33, "unit": "kPa"}, {"measurement": "vapor or sublimation pressure", "setting": "421.8 K", "result": 77.33, "unit": "kPa"}, {"measurement": "vapor or sublimation pressure", "setting": "423.7 K", "result": 80.32, "unit": "kPa"}, {"measurement": "vapor or sublimation pressure", "setting": "425.4 K", "result": 83.33, "unit": "kPa"}, {"measurement": "vapor or sublimation pressure", "setting": "426.7 K", "result": 86.33, "unit": "kPa"}, {"measurement": "vapor or sublimation pressure", "setting": "427.9 K", "result": 89.33, "unit": "kPa"}, {"measurement": "vapor or sublimation pressure", "setting": "429.1 K", "result": 92.33, "unit": "kPa"}, {"measurement": "vapor or sublimation pressure", "setting": "430.2 K", "result": 95.32, "unit": "kPa"}, {"measurement": "vapor or sublimation pressure", "setting": "431.3 K", "result": 98.32, "unit": "kPa"}, {"measurement": "vapor or sublimation pressure", "setting": "432 K", "result": 100.33, "unit": "kPa"}]}
